Measurements published in patent US7759331B2, “Pyridine-containing macroheterococylic compounds as kinase inhibitors” (Janssen Pharmaceutica NV, priority 2006, dated 2010).

What was measured:
Assay in all cases: Protein kinase selectivity panel
Type in all cases: biochemical
Conditions in all cases: 1.0 μM compound, 10 μM ATP
[1] = target: IR(h) (Homo sapiens, UniProt P06213)
Method in brief: (§1)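 Each kinase was tested for phosphorylation of its appropriate peptide or protein substrate with compound present at 1.0 μM. ATP was held at 10 μM, and reactions were run within the linear range with respect to time.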

[2] = target: T1, PKCζ(h) (Homo sapiens, UniProt Q05513)
T1 sequence (Q05513 1-592): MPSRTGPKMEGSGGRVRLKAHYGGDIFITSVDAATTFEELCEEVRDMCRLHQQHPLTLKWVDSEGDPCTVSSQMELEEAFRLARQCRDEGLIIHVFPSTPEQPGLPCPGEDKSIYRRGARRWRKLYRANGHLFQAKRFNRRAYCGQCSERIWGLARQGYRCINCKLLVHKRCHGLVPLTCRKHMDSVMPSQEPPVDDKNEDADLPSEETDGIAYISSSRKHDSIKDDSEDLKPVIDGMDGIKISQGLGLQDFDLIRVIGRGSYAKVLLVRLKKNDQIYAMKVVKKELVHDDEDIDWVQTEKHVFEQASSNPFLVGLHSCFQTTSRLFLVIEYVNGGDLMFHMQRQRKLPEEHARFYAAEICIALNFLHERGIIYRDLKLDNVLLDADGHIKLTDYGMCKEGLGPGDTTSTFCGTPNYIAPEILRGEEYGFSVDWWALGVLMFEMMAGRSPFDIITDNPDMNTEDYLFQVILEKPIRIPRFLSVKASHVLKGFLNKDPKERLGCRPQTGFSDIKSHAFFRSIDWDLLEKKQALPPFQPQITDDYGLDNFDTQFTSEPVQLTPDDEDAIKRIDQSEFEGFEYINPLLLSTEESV
Method in brief: as §1

[3] = target: T2, PRAK(h) (Homo sapiens, UniProt Q8IW41)
T2 sequence (Q8IW41 1-473): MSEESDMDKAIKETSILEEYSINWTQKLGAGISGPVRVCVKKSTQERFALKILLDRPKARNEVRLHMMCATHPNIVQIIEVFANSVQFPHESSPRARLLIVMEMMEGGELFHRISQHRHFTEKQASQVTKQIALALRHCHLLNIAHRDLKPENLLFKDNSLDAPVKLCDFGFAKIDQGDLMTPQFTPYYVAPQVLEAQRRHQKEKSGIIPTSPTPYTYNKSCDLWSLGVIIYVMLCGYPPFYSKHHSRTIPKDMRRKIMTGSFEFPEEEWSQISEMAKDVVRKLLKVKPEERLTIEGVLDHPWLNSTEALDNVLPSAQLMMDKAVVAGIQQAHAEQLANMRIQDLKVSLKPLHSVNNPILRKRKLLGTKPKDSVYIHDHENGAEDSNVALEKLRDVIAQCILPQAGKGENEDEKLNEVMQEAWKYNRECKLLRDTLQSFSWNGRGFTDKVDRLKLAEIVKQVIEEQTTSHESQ
Method in brief: as §1

[4] = target: Rsk1(r) (Rattus norvegicus, UniProt Q63531)
Method in brief: as §1

[5] = target: BTK(h) (Homo sapiens, UniProt Q06187)
Method in brief: as §1

[6] = target: PKCβII(h) (Homo sapiens, UniProt P05771)
Method in brief: as §1

[7] = target: CDK6/cyclinD3(h) (Homo sapiens, UniProt Q00534)
Method in brief: as §1

[8] = target: CDK7/cyclinH/MAT1(h) (Homo sapiens, UniProt P50613)
Method in brief: as §1

[9] = target: Fms(h) (Homo sapiens, UniProt P07333)
Method in brief: as §1

[10] = target: CDK2/cyclinA(h) (Homo sapiens, UniProt P24941)
Method in brief: as §1

[11] = target: T3, CHK1(h) (Homo sapiens, UniProt O14757)
T3 sequence (O14757 1-476): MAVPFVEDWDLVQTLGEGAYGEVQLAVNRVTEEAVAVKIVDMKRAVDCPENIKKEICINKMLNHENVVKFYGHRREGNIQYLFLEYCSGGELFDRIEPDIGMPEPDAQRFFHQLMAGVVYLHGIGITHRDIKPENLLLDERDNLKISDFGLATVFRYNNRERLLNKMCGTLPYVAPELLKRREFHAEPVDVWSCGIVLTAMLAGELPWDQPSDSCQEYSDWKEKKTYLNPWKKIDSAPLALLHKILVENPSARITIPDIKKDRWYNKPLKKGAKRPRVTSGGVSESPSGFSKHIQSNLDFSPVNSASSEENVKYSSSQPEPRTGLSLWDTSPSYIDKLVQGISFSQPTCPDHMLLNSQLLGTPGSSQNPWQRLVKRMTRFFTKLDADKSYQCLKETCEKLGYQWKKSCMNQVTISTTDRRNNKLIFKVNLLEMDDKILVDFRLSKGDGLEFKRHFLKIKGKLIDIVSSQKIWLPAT
Method in brief: as §1

[12] = target: T4, CaMKIV(h) (Homo sapiens, UniProt Q16566)
T4 sequence (Q16566 1-473): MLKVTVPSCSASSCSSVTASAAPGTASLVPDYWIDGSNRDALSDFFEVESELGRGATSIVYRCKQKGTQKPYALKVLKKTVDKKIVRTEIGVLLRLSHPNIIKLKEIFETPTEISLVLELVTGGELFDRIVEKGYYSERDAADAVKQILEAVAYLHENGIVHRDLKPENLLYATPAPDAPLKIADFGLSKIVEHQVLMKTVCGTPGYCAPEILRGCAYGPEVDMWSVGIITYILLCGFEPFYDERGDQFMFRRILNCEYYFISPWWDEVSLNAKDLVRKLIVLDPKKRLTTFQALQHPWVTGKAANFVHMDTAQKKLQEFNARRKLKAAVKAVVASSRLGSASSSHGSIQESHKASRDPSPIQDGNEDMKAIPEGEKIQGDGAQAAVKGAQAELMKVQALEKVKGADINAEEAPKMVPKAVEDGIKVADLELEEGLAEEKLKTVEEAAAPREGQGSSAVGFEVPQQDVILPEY
Method in brief: as §1

[13] = target: CDK5/p35(h) (Homo sapiens, UniProt Q00535)
Method in brief: as §1

[14] = target: PRK2(h) (Homo sapiens, UniProt Q16513)
Method in brief: as §1

Sequence of Rsk1(r) (Q63531 whole entry): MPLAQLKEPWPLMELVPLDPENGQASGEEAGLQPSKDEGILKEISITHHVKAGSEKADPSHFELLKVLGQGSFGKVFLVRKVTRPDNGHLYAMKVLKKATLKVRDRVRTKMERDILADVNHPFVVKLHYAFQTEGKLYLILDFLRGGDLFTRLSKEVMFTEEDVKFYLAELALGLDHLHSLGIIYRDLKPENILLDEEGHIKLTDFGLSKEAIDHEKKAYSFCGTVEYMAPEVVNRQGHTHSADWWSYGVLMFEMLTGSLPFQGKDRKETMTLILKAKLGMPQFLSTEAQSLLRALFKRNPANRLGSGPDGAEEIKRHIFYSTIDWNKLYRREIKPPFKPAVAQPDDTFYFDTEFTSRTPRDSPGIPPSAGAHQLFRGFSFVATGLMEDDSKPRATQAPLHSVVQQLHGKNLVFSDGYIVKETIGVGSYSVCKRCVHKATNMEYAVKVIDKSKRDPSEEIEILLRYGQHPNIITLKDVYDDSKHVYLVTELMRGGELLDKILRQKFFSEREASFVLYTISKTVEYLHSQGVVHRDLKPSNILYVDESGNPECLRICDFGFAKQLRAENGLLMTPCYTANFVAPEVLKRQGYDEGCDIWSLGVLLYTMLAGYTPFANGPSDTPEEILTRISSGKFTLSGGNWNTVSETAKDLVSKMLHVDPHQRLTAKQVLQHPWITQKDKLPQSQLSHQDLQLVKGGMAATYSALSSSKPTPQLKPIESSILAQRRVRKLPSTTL
Sequence of BTK(h) (Q06187 whole entry): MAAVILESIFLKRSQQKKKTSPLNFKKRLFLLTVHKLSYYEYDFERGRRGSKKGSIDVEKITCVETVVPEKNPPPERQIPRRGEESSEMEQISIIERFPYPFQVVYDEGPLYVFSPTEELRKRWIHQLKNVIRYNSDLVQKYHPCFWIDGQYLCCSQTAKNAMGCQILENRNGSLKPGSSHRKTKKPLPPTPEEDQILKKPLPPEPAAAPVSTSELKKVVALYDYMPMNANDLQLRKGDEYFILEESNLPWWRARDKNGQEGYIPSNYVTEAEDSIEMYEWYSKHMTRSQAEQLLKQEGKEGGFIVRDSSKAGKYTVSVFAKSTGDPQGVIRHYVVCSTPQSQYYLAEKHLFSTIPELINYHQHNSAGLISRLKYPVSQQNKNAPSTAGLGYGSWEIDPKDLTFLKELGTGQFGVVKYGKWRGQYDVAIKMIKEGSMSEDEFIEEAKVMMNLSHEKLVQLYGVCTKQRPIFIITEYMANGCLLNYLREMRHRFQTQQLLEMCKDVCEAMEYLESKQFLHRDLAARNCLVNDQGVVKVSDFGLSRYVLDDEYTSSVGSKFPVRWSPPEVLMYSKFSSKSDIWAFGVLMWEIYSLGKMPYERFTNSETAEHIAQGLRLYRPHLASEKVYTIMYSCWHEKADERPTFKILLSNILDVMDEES
Sequence of PRK2(h) (Q16513 whole entry): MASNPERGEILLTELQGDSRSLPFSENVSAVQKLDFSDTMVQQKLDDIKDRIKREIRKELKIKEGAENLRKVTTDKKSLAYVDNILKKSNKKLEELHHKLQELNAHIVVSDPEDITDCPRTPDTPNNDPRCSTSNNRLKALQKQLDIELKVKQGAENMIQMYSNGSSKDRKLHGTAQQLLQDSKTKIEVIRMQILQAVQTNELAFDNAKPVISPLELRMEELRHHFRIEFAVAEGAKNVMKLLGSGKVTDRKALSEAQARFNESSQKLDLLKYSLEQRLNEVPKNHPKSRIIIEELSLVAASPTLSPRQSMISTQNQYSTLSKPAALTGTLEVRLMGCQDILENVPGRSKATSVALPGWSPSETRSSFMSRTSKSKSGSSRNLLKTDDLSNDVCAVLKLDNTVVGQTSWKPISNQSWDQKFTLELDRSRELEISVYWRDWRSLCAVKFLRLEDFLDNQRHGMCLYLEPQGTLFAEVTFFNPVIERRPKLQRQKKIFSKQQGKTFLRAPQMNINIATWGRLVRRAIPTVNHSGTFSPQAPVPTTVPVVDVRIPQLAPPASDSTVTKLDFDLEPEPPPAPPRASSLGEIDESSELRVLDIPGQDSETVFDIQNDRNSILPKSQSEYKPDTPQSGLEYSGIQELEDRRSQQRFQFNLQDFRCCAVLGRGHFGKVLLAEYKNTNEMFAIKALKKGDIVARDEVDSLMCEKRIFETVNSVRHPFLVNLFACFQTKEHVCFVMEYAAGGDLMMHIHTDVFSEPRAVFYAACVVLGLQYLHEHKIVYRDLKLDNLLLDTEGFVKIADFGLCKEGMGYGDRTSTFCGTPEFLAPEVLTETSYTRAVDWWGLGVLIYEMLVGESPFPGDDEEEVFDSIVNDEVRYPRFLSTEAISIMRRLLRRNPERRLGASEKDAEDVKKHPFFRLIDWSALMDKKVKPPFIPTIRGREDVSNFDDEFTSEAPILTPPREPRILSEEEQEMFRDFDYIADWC
Sequence of IR(h) (P06213 28-1382): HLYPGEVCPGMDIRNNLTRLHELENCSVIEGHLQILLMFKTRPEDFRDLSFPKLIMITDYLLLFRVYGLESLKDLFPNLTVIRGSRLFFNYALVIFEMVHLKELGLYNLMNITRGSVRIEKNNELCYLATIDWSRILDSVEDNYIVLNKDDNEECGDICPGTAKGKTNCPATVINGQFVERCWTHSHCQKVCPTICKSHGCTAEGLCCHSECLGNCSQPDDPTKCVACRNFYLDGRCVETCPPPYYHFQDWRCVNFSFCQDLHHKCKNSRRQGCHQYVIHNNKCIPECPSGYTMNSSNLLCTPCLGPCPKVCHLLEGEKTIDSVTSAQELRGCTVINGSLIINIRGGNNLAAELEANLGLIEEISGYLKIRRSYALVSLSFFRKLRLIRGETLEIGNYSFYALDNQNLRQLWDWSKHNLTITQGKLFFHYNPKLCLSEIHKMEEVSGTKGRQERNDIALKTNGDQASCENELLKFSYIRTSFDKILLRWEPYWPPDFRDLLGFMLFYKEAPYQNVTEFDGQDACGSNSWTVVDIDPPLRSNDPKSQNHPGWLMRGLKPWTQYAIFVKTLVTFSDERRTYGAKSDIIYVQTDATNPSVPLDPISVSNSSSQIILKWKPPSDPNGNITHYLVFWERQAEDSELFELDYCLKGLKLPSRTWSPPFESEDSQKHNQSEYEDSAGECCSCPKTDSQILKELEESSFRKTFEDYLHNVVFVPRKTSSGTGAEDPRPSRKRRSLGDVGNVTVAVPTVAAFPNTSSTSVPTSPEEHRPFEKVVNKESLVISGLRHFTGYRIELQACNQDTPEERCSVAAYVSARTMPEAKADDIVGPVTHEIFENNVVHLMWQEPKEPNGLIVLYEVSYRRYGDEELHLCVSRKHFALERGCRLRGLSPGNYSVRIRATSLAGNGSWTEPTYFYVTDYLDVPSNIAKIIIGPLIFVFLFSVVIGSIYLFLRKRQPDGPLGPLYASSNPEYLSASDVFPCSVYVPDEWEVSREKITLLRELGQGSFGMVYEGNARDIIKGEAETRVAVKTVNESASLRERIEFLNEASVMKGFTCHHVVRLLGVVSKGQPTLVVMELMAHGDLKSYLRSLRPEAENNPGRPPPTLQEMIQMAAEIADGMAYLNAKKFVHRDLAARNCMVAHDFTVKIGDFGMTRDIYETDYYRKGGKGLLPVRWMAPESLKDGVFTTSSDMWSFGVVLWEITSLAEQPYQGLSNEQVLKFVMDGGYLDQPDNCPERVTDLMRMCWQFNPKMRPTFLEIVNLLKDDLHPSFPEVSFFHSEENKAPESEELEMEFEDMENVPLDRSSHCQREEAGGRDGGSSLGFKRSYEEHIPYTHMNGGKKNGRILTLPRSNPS
Sequence of CDK5/p35(h) (Q00535 whole entry): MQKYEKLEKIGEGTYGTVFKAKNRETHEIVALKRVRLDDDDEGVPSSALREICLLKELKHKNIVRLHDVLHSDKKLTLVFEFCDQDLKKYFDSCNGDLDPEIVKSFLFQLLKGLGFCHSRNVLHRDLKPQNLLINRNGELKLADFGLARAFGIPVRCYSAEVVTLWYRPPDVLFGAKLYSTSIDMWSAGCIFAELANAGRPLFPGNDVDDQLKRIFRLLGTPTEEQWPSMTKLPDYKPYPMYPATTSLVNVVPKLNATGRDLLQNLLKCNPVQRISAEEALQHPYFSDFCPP
Sequence of CDK5/p35(h) (Q15078 whole entry partner): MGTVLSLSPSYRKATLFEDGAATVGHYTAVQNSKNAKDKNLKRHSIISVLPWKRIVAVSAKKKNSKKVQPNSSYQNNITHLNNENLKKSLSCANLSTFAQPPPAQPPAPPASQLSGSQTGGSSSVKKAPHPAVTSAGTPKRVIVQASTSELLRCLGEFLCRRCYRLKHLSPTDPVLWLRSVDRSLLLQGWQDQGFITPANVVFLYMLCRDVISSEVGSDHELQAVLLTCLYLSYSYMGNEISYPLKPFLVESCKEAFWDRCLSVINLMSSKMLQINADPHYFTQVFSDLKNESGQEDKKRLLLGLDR
Sequence of PKCβII(h) (P05771 1-673 isoform P05771-2): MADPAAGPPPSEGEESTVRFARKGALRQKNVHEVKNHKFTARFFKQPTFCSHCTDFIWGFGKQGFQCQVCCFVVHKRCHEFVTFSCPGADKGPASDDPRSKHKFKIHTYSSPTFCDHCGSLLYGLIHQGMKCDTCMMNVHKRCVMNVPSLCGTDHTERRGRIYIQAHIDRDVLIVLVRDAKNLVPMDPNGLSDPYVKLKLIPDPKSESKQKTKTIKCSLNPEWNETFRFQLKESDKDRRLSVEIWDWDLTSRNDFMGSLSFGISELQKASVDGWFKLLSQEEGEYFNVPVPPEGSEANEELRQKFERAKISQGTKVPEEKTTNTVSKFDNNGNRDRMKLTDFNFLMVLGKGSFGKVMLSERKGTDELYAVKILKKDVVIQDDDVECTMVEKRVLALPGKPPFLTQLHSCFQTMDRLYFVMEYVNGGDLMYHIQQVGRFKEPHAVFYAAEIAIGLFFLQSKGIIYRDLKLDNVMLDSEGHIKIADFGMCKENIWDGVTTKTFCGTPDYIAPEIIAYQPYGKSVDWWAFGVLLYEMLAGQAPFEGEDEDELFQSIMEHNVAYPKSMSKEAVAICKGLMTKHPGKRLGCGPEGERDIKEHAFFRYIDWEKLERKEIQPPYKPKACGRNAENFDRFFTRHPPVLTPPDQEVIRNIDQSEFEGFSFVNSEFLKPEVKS

Compound	Activity at Protein Kinase Assays (% of control), IR(h) [1]	Activity at Protein Kinase Assays (% of control), PKCζ(h) [2]	Activity at Protein Kinase Assays (% of control), PRAK(h) [3]	Activity at Protein Kinase Assays (% of control), Rsk1(r) [4]	Activity at Protein Kinase Assays (% of control), BTK(h) [5]	Activity at Protein Kinase Assays (% of control), PKCβII(h) [6]	Activity at Protein Kinase Assays (% of control), CDK6/cyclinD3(h) [7]	Activity at Protein Kinase Assays (% of control), CDK7/cyclinH/MAT1(h) [8]	Activity at Protein Kinase Assays (% of control), Fms(h) [9]	Activity at Protein Kinase Assays (% of control), CDK2/cyclinA(h) [10]	Activity at Protein Kinase Assays (% of control), CHK1(h) [11]	Activity at Protein Kinase Assays (% of control), CaMKIV(h) [12]	Activity at Protein Kinase Assays (% of control), CDK5/p35(h) [13]	Activity at Protein Kinase Assays (% of control), PRK2(h) [14]
CN(C)c1nc2ccc1CCCCn1cc(c3ccccc31)C1=C(C(=O)NC1=O)c1cn(c3ccccc13)CCC2 [Cpd 1, 31-(dimethylamino)-5,15,25,32-tetraazaheptacyclo[28.2.2.1^5,12.1^18,25.0^6,11.0^13,17.0^19,24]hexatriaconta-1(32),6,8,10,12(36),13(17),18(35),19,21,23,30,33-dodecaene-14,16-dione]	91 % of control	98 % of control	88 % of control	37 % of control	105 % of control	64 % of control	86 % of control	89 % of control	94 % of control	120 % of control	105 % of control	92 % of control	99 % of control	106 % of control
CN(C)c1cc2cc(n1)CCCn1cc(c3ccccc31)C1=C(C(=O)NC1=O)c1cn(c3ccccc13)CCC2 [Cpd 2, 20-(dimethylamino)-4,14,19,26-tetraazaheptacyclo[24.6.1.1^7,14.1^18,22.0^2,6.0^8,13.0^27,32]pentatriaconta-1(33),2(6),7(35),8,10,12,18(34),19,21,27,29,31-dodecaene-3,5-dione]	102 % of control	105 % of control	96 % of control	7 % of control	106 % of control	68 % of control	74 % of control	108 % of control	101 % of control	80 % of control	101 % of control	113 % of control	105 % of control	113 % of control
O=C1NC(=O)C2=C1c1cn(c3ccccc13)CCCc1cc(nc(N3CCCC3)c1)CCCn1cc2c2ccccc21 [Cpd 6, 20-pyrrolidin-1-yl-4,14,19,26-tetraazaheptacyclo[24.6.1.1^7,14.1^18,22.0^2,6.0^8,13.0^27,32]pentatriaconta-1(33),2(6),7(35),8,10,12,18(34),19,21,27,29,31-dodecaene-3,5-dione]	110 % of control	99 % of control	101 % of control	5 % of control	106 % of control	74 % of control	82 % of control	107 % of control	99 % of control	88 % of control	110 % of control	112 % of control	99 % of control	110 % of control
O=C1NC(=O)C2=C1c1cn(c3ccccc13)CCCc1ccc(c(N3CCCC3)n1)CCCn1cc2c2ccccc21 [Cpd 7, 31-pyrrolidin-1-yl-5,15,25,30-tetraazaheptacyclo[27.2.2.1^5,12.1^18,25.0^6,11.0^13,17.0^19,24]pentatriaconta-1(31),6,8,10,12(35),13(17),18(34),19,21,23,29,32-dodecaene-14,16-dione]	87 % of control	116 % of control	102 % of control	67 % of control	104 % of control	77 % of control	92 % of control	111 % of control	106 % of control	88 % of control	106 % of control	99 % of control	104 % of control	126 % of control
